The results in this text go back to patent US20250195431A1, “LIPID NANOPARTICLES FOR TARGETED DELIVERY OF MRNA” (Trustees of Tufts College, priority 2022, published 2025).

In one test the test system is IFN-γ-secreting T cells. Briefly: T cell response by ELISPOT after two doses of spike mRNA/LNP. The settings on record: mouse, in vivo. More on the design: species or system mice.
Test [1] has as its system Firefly luciferase expression. Briefly: In vivo optimization of Lipid 88 formulations, intramuscular (I.M.) administration, bioluminescence. The arrangement: species or system mice. The settings on record: mouse.
Experimental: Various formulations of mRNA/LNPs comprising lipid 88 were tested in vivo, including a plurality of ratios of ionizable lipids to helper lipids, and ratios of RNA to lipids. […] The luc mRNA/LNPs were then given to both adult and neonatal mice via various routes of administration (e.g., intravenously, intramuscularly, or through facial vein). After a period of time post injection (e.g., 6-80 hours), substrates of luciferase were administered to the animals and whole-body imaging was performed using IVIS imaging system.
The test system of the next test is IgG anti-spike antibody. Type of test: in vivo. The settings on record: mice, I.M., two doses.
In the next test the test system is Exon 6 of Angltl 3. Briefly: Base editing with mRNA encoding ABE8e and sgRNA_SA or sgRNA_SD using lipids (306O12B, L88 and L10). The settings on record: among 306O12B.
The next test relates to Angptl3. Briefly: ABE8e mRNA/sgRNA/LNPs injected to rodents: base editing and serum biomarkers. The settings on record: in vivo.

SMILES strings stand for the structures.

Experimental for Angptl3: Significance measured with one way ANOVA. *P<0.05 **P<0.01 ***P<0.001 ****P<0.0001.
Blood taken on day 7. […] Significance measured with one way ANOVA *P<0.05 **P<0.01 ***P<0.001 ****P<0.0001.
Significance measured by one-way ANOVA.
Next LNPs (e.g., ABE8e mRNA/sgRNA/LNPs comprising lipid 88) were injected to rodents. In some cases, one dose of 3 mg/kg LNPs was administered. In some cases, 2 doses of 3 mg/kg LNPs were administered 48 hours apart. […] Significance measured with one way ANOVA. *P<0.05 **P<0.01 ***P<0.001 ****P<0.0001. Seven days post administration of the LNPs, blood samples were collected from treated animals, and various biomarkers were measured, including Angptl3, cholesterol, triglyceride, ALT, AST, and IL-6. […] Significance measured with one way ANOVA *P<0.05 **P<0.01 ***P<0.001 ****P<0.0001. […] Significance measured with one way ANOVA *P<0.05 **P<0.01 ***P<0.001 ****P<0.0001. […] Significance measured by one-way ANOVA. […] Significance measured by one-way ANOVA.

In the case of `CCCCCCCCSSCCOC(=O)CCN(CCCN(C)CCCN(CCC(=O)OCC(CC)CCCC)CCC(=O)OCC(CC)CCCC)CCC(=O)OCC(CC)CCCC` (stereo not drawn) [Lipid 65], the “T cell response (ELISPOT), comparison of LNPs” value in the test with IFN-γ-secreting T cells is reported as “highest T cell response”.

For the molecule `CCCCCCC(CCCC)COC(=O)OCCOC(=O)CCN(CCCN(C)CCCN(CCC(=O)OCCOC(=O)OCC(CCCC)CCCCCC)CCC(=O)OCCOC(=O)OCC(CCCC)CCCCCC)CCC(=O)OCCOC(=O)OCC(CCCC)CCCCCC` (stereo not drawn) [Lipid 88], in test [1], the “delivery of luc mRNA (bioluminescence over time)” value is “enhanced delivery of luc mRNA to the mice compared with LNPs formulated with 113O12B”. Moreover, the “T cell response (ELISPOT), comparison of LNPs” value with IFN-γ-secreting T cells is listed as “highest T cell response”. In addition, the “anti-spike IgG titer (ELISA), comparison of LNPs” value in the test on IgG anti-spike antibody is reported as “highest anti-spike IgG titer”. Further, the “transfection and editing efficiency” value with Exon 6 of Angltl 3 is listed as around 60%. Further, in the test on Angptl3, the “percent of base editing, single dose vs double dose” value is on record as “maximal editing was reached with single dose”.
